Measured values taken from patent US11344554B2, “Animal and human anti-malarial agents” (Celgene Corporation, priority 2016, dated 2022).
Where two headings read alike, the source gives them in different places.

System: Plasmodium falciparum
Assay: Plasmodium falciparum in vitro [3H]-hypoxanthine parasite growth inhibition assay
Assay type: cell-based
Conditions: Erythrocyte, read-out: Act Class (IC50 activity level)
[1] = P. falciparum asexual blood stage parasites in human erythrocytes, [3H]-hypoxanthine uptake

Work on `CC(C)(C)Nc1ncc2nc(Nc3cccc(C(F)(F)F)c3)n(C3CC4CNCC4C3)c2n1` (centres unmarked) [Cpd 95, N2-tert-butyl-9-(octahydrocyclopenta[c]pyrrol-5-yl)-N8-(3-(trifluoromethyl)phenyl)-9H-purine-2,8-diamine] yielded an IC50 [1] of 200 to 500 nM.

`FC(F)(F)c1cc(Nc2nc3cnc(NC4CC4)nc3n2C2CCNCC2)cc(C(F)(F)F)c1` [Cpd 96, N8-(3,5-bis(trifluoromethyl)phenyl)-N2-cyclopropyl-9-(piperidin-4-yl)-9H-purine-2,8-diamine] gave an IC50 [1] of 100 to 200 nM.

For `CC(C)(C)Nc1ncc2nc(Nc3cc(Cl)cc(C(F)(F)F)c3)n(CC3CCNC3)c2n1` (centres unmarked) [Cpd 98, N2-tert-butyl-N8-(3-chloro-5-(trifluoromethyl)phenyl)-9-(pyrrolidin-3-ylmethyl)-9H-purine-2,8-diamine], the IC50 was 200 to 500 nM.

Compound `CC(N)CCn1c(Nc2cc(Cl)cc(C(F)(F)F)c2)nc2cnc(NC3CCCC3)nc21` (centres unmarked) [Cpd 111, 9-(3-aminobutyl)-N8-(3-chloro-5-(trifluoromethyl)phenyl)-N2-cyclopentyl-9H-purine-2,8-diamine] has an IC50 [1] of 100 to 200 nM.

For `CC(N)CCn1c(Nc2cc(Cl)cc(C(F)(F)F)c2)nc2cnc(NC(C)(C)C)nc21` (centres unmarked) [Cpd 112, 9-(3-aminobutyl)-N2-tert-butyl-N8-(3-chloro-5-(trifluoromethyl)phenyl)-9H-purine-2,8-diamine], the IC50 [1] was 200 to 500 nM.
